The values that follow come from ChEMBL document CHEMBL1152028, “The synthesis of 8,8-disubstituted tricyclic analogs of artemisinin” (Bioorg Med Chem Lett, 1997).

For the experiment, the system named is Plasmodium falciparum. Put plainly: In vitro inhibition of Plasmodium falciparum W2. Type of experiment: functional, organism-based.

≈ marks a conversion by molar mass, not a printed value.

As a reminder, the IC50 is the concentration that gives 50% inhibition. Higher therefore signals weaker potency.

The compound `C[C@@]12CC[C@H]3CC[C@](C)(c4ccccc4)C[C@]3(CO1)OO2` yielded an IC50 of 0.013 mg/L (≈ 0.0451 µM). As for `C[C@@]12CC[C@H]3CC[C@@](C)(c4ccccc4)C[C@]3(CO1)OO2`, the figure is 0.132 mg/L (≈ 0.458 µM); as for `C[C@@H]1CC[C@H]2[C@@H](C)C(=O)O[C@@H]3O[C@@]4(C)CC[C@@H]1[C@]32OO4` [ARTEMISININ], 0.0042 mg/L (≈ 0.0149 µM).
